From ChEMBL document CHEMBL3399988, “Ritonavir-boosted indinavir but not lopinavir inhibits erythrocytic stage Plasmodium knowlesi malaria in rhesus macaques” (Bioorg Med Chem Lett, 2015)
Activity calls are given as the source filed them. The rule behind the calls is not given here.

Experiments:
[1] = system: Plasmodium knowlesi; test: Antimalarial activity against Plasmodium knowlesi infected Chinese rhesus macaques assessed as parasitemia level in blood smears at 40 mg/kg, intragastric treated 5 days before infection measured between day 0 to 7 by Giemsa-staining in presence of ritonavir 5 mg/kg, intragastric twice daily; assay type: functional, organism-based
[2] = system: Plasmodium knowlesi; test: Antimalarial activity against Plasmodium knowlesi infected Chinese rhesus macaques assessed as parasitemia level in blood smears at 40 mg/kg, intragastric treated 5 days before infection measured between day 0 to 7 by Giemsa-staining in presence of ritonavir 10 mg/kg, intragastric once daily; assay type: functional, organism-based

Compound | inhibition [1] | inhibition [2]
CC(C)(C)NC(=O)[C@@H]1CN(Cc2cccnc2)CCN1C[C@@H](O)C[C@@H](Cc1ccccc1)C(=O)N[C@H]1c2ccccc2C[C@H]1O | Active | –
Cc1cccc(C)c1OCC(=O)N[C@@H](Cc1ccccc1)[C@@H](O)C[C@H](Cc1ccccc1)NC(=O)[C@H](C(C)C)N1CCCNC1=O | – | inactive
